Measured values from BigSolDB 2.1.

Question: With `CO/N=C(\C(=O)N[C@@H]1C(=O)N2C(C(=O)[O-])=C(COC(C)=O)CS[C@H]12)c1csc(N)n1.[Na+]` as the compound, how does the solubility (mole fraction) (in DMF, 278.15 K) read?
Answer: 0.0407

Question: And the solubility (mole fraction) (in DMF, 280.15 K)?
Answer: 0.0413

Question: What about the solubility (mole fraction) (in DMF, 283.15 K) of the same compound?
Answer: 0.0436

Question: And the solubility (mole fraction) (in DMF, 285.15 K)?
Answer: 0.0462

Question: And the solubility (mole fraction) (in DMF, 288.15 K)?
Answer: 0.0474

Question: And the solubility (mole fraction) (in DMF, 290.15 K)?
Answer: 0.0537

Question: And the solubility (mole fraction) (in DMF, 293.15 K)?
Answer: 0.057

Question: And the solubility (mole fraction) (in DMF, 295.15 K)?
Answer: 0.06

Question: And the solubility (mole fraction) (in DMF, 298.15 K)?
Answer: 0.0662

Question: What about the solubility (mole fraction) (in DMF, 300.15 K) of the same compound?
Answer: 0.069

Question: What about the solubility (mole fraction) (in DMF, 303.15 K) of the same compound?
Answer: 0.0757

Question: What about the solubility (mole fraction) (in DMF, 305.15 K) of the same compound?
Answer: 0.0785

Question: And the solubility (mole fraction) (in DMF, 308.15 K)?
Answer: 0.0845

Question: And the solubility (mole fraction) (in DMSO, 293.15 K)?
Answer: 0.0738

Question: And the solubility (mole fraction) (in DMSO, 295.15 K)?
Answer: 0.0744

Question: What about the solubility (mole fraction) (in DMSO, 297.15 K) of the same compound?
Answer: 0.0751

Question: And the solubility (mole fraction) (in DMSO, 298.15 K)?
Answer: 0.0755

Question: What about the solubility (mole fraction) (in DMSO, 300.15 K) of the same compound?
Answer: 0.077

Question: What about the solubility (mole fraction) (in DMSO, 302.15 K) of the same compound?
Answer: 0.0777

Question: What about the solubility (mole fraction) (in DMSO, 303.15 K) of the same compound?
Answer: 0.0779

Question: What about the solubility (mole fraction) (in DMSO, 305.15 K) of the same compound?
Answer: 0.0783

Question: And the solubility (mole fraction) (in DMSO, 307.15 K)?
Answer: 0.0785

Question: What about the solubility (mole fraction) (in DMSO, 308.15 K) of the same compound?
Answer: 0.0788

Question: And the solubility (mole fraction) (in NMP, 278.15 K)?
Answer: 0.000254

Question: And the solubility (mole fraction) (in NMP, 280.15 K)?
Answer: 0.000935

Question: What about the solubility (mole fraction) (in NMP, 283.15 K) of the same compound?
Answer: 0.00152

Question: And the solubility (mole fraction) (in NMP, 285.15 K)?
Answer: 0.00192

Question: And the solubility (mole fraction) (in NMP, 288.15 K)?
Answer: 0.00279

Question: And the solubility (mole fraction) (in NMP, 290.15 K)?
Answer: 0.00383

Question: And the solubility (mole fraction) (in NMP, 293.15 K)?
Answer: 0.00524

Question: And the solubility (mole fraction) (in NMP, 295.15 K)?
Answer: 0.00869

Question: What about the solubility (mole fraction) (in NMP, 298.15 K) of the same compound?
Answer: 0.0118

Question: And the solubility (mole fraction) (in NMP, 300.15 K)?
Answer: 0.038

Question: And the solubility (mole fraction) (in NMP, 303.15 K)?
Answer: 0.0737

Question: What about the solubility (mole fraction) (in NMP, 305.15 K) of the same compound?
Answer: 0.083

Question: And the solubility (mole fraction) (in NMP, 308.15 K)?
Answer: 0.103

Question: And the solubility (mole fraction) (in formamide, 278.15 K)?
Answer: 0.0483

Question: What about the solubility (mole fraction) (in formamide, 280.15 K) of the same compound?
Answer: 0.0503

Question: And the solubility (mole fraction) (in formamide, 283.15 K)?
Answer: 0.053

Question: What about the solubility (mole fraction) (in formamide, 285.15 K) of the same compound?
Answer: 0.0562

Question: What about the solubility (mole fraction) (in formamide, 288.15 K) of the same compound?
Answer: 0.0596

Question: And the solubility (mole fraction) (in formamide, 290.15 K)?
Answer: 0.0615

Question: What about the solubility (mole fraction) (in formamide, 293.15 K) of the same compound?
Answer: 0.0644

Question: What about the solubility (mole fraction) (in formamide, 295.15 K) of the same compound?
Answer: 0.0652

Question: And the solubility (mole fraction) (in formamide, 298.15 K)?
Answer: 0.0674

Question: And the solubility (mole fraction) (in formamide, 300.15 K)?
Answer: 0.0688

Question: What about the solubility (mole fraction) (in formamide, 303.15 K) of the same compound?
Answer: 0.0702

Question: And the solubility (mole fraction) (in formamide, 305.15 K)?
Answer: 0.0719

Question: And the solubility (mole fraction) (in formamide, 308.15 K)?
Answer: 0.0733

Question: What about the solubility (mole fraction) (in water, 278.15 K) of the same compound?
Answer: 0.018

Question: And the solubility (mole fraction) (in water, 280.15 K)?
Answer: 0.0181

Question: What about the solubility (mole fraction) (in water, 282.15 K) of the same compound?
Answer: 0.0182

Question: What about the solubility (mole fraction) (in water, 283.15 K) of the same compound?
Answer: 0.0183

Question: What about the solubility (mole fraction) (in water, 285.15 K) of the same compound?
Answer: 0.0184

Question: What about the solubility (mole fraction) (in water, 287.15 K) of the same compound?
Answer: 0.0184

Question: And the solubility (mole fraction) (in water, 288.15 K)?
Answer: 0.0184

Question: And the solubility (mole fraction) (in water, 290.15 K)?
Answer: 0.0185

Question: And the solubility (mole fraction) (in water, 292.15 K)?
Answer: 0.0186

Question: And the solubility (mole fraction) (in water, 293.15 K)?
Answer: 0.0188

Question: And the solubility (mole fraction) (in water, 295.15 K)?
Answer: 0.0188

Question: And the solubility (mole fraction) (in water, 297.15 K)?
Answer: 0.0189

Question: What about the solubility (mole fraction) (in water, 298.15 K) of the same compound?
Answer: 0.0189
